Test results published in publication PMC7647070, “Mechanisms of QT prolongation by buprenorphine cannot be explained by direct hERG channel block” (PLoS ONE, 2020).
Where two headings read alike, the source gives them in different places.

How the values were obtained:
[1] = target: T1, hERG1a (homomeric hERG channel, IhERG) (Homo sapiens, UniProt Q12809); experiment: whole-cell patch clamp, tail current
T1 construct: gene KCNH2

[2] = target: T2, hERG1a/1b (heteromeric hERG channel, IhERG) (Homo sapiens, UniProt Q12809); experiment: whole-cell patch clamp, tail current
T2 construct: gene KCNH2

[3] = target: T1, hERG1a (homomeric hERG channel, IhERG)
[4] = target: T2, hERG1a/1b (heteromeric hERG channel, IhERG)

T1 sequence (Q12809 whole entry): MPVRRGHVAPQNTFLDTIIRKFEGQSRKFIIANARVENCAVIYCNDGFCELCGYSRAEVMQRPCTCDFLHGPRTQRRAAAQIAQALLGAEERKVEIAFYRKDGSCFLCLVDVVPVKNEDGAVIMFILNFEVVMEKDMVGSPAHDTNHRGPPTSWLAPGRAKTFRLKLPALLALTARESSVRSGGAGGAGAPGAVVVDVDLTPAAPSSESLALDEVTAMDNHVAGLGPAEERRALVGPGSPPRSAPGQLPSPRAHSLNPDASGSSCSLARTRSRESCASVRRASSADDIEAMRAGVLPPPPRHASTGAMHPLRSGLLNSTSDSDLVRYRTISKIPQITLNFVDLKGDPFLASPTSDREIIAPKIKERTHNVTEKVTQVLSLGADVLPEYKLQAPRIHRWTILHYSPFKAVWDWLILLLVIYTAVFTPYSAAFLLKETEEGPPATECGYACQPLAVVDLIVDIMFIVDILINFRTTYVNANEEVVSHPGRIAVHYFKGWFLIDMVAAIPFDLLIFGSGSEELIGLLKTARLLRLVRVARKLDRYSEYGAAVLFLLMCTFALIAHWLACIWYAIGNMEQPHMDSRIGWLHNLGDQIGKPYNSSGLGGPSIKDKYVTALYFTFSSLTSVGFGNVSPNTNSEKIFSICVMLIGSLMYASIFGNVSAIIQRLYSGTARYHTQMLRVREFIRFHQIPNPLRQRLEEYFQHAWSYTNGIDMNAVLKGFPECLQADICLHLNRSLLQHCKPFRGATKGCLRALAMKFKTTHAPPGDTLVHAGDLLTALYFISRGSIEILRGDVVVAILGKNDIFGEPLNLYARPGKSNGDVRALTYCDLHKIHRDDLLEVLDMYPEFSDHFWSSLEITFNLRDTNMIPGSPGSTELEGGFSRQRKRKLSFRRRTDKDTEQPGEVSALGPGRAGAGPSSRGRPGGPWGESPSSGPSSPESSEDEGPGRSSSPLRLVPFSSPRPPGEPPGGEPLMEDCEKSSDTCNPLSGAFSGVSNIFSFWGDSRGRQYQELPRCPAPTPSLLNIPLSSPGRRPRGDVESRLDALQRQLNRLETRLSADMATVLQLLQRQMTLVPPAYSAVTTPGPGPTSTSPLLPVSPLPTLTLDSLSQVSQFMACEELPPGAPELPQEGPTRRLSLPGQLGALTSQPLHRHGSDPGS
T2 sequence (Q12809 whole entry): as above
T2 sequence (Q12809 377-1159 limits assumed): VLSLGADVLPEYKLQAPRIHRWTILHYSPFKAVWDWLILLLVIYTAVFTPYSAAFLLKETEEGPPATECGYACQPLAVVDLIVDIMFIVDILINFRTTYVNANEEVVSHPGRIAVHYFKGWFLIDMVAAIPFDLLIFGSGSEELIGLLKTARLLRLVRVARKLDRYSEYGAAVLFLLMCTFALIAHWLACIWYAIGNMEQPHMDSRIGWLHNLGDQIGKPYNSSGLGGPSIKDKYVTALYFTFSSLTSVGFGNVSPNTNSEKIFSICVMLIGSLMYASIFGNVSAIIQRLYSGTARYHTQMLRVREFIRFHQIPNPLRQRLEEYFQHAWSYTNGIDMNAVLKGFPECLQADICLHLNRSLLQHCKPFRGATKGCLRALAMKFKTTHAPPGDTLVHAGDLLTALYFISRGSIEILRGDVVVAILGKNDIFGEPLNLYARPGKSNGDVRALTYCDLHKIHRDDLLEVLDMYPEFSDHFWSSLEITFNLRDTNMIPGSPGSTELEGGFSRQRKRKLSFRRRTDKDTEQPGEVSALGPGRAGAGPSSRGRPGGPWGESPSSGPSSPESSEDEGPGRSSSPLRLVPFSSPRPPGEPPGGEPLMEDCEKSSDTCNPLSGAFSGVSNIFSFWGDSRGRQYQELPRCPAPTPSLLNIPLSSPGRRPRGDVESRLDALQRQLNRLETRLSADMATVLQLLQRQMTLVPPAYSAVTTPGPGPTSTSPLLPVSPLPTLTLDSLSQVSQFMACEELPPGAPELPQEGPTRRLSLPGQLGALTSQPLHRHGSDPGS

| SMILES | IC50 [1] [µM] | IC50 [2] [µM] | IC50 [3] [µM] | IC50 [4] [µM] |
| --- | --- | --- | --- | --- |
| O=C1CC[C@@]2(O)[C@H]3Cc4ccc(O)c5c4[C@@]2(CCN3CC2CC2)[C@H]1O5 [Naltrexone] | 31.1 ± 5.4 | 32.3 ± 8.6 | – | – |
| CO[C@]12CC[C@@]3(C[C@@H]1[C@](C)(O)C(C)(C)C)[C@H]1Cc4ccc(O)c5c4[C@@]3(CCN1CC1CC1)[C@H]2O5 [Buprenorphine] | – | – | 8.7 ± 0.4 | 6.9 ± 0.9 |
